The results in this text go back to US20220354836A1, “Equine Esomeprazole Formulations and Methods of Use” (priority 2019, published 2022).

A short description of data set [1]: Pharmacokinetics after multiple intramuscular doses to horses. How it is done: Eighteen adult horses were randomized into three equal treatment groups and assigned one of three doses: 2 mg/kg (1×), 6 mg/kg (3×), or 10 mg/kg (5×). Doses were administered intramuscularly. Each horse received the assigned dose three times, seven days apart. Blood samples were collected at 1, 2, 4, 6, 8, 12, 24, 36, 48, 72, 96, 120, 144 hrs after each dosing, then every 48 hours until Day 28. Esomeprazole was quantified by LC-MS/MS. Data were subjected to noncompartmental analysis.

A short description of data set [2]: Particle size distribution (Malvern MASTERSIZER 2000). Particulars: sterilized drug substance from Shouguang Fukang Pharma Co.; average of three measurements. In kind it is physicochemical. How it is done:
Particle size distribution may be measured, for example, using a Malvern MASTERSIZER 2000 instrument. After 24 hours storage, a particle size distribution (PSD) was performed using a Malvern MASTERSIZER 2000. The measuring range of the instrument is 0.02-2000 μm, with refractive index dispersant 1.375—hexanes, obscuration range 5-20%, sample/background measurement time=1, 5000 sample/background measurement snaps, and manual stirring speed 2000 rpm.

“Also recorded” adds a separate entry of the source.

Turning to `COc1ccc2nc([S@@+]([O-])Cc3ncc(C)c(OC)c3C)[nH]c2c1` [esomeprazole], in data set [1] (across 2, 6 and 10 mg/kg intramuscular), the “Dose normalization of Cmax and area under the curve (kinetic linearity)” value is recorded as “linear pharmacokinetics; also recorded: Linear kinetic properties were observed”. Further, the “Time for which drug was detectable” value in data set [1] (after the final dose in the 5× group (10 mg/kg intramuscular)) was determined as 96 ± 26.29 h. Also, in data set [1] (horse, in vivo, im, 10 mg/kg), the Mean half-life lay in the range of 12 to 24 h. Also, the half-life (usually the time in which the quantity being followed falls by half) in data set [1] (horse, in vivo, im, 10 mg/kg, Mean half-life) is 698 to 1470 min. In addition, the Tolerability result in data set [1] (in vivo) is reported as “well tolerated”. For the same compound, the “Absorption from the injection site” value in data set [1] (intramuscular, horses) is recorded as “rapidly absorbed”. For the same compound, the Injection site reaction entry in data set [1] (one horse in the 3× group (6 mg/kg intramuscular)) is “A single mild, self-resolving, injection site reaction”.
In data set [2], `COc1ccc2nc([S@@+]([O-])Cc3ncc(C)c(OC)c3C)[nH]c2c1` [esomeprazole sodium] came in with a Median particle size of 18.84 μm.
The same measure, in the same setting: the figure for `COc1ccc2[n-]c([S@@+]([O-])Cc3ncc(C)c(OC)c3C)nc2c1.COc1ccc2[n-]c([S@@+]([O-])Cc3ncc(C)c(OC)c3C)nc2c1.O.O.[Mg+2]` [esomeprazole magnesium dihydrate] is 2.01 μm.
